# According to the NIST ThermoML archive (doi:10.1016/j.jct.2005.01.015):
# ± gives the expanded uncertainty stated by the source.
# Test: activity coefficient (dimensionless); of the first substance listed, at infinite dilution; xn = mol fraction of the nth substance listed
# Conditions: 101 kPa, Liquid, Chromatography, x1 = 0
activity coefficient (298.15 K),activity coefficient (303.15 K),activity coefficient (308.15 K),Compound
7.37 ± 0.34,7.22 ± 0.33,7.42 ± 0.34,C#CCCCCC [1-heptyne] + CCCCn1cc[n+](C)c1.COCCOCCOS(=O)(=O)[O-]
2.04 ± 0.09,2.02 ± 0.09,2.03 ± 0.09,c1ccccc1 [benzene] + CCCCn1cc[n+](C)c1.COCCOCCOS(=O)(=O)[O-]
61.7 ± 2.9,57.1 ± 2.7,54.9 ± 2.6,CCCCC [pentane] + CCCCn1cc[n+](C)c1.COCCOCCOS(=O)(=O)[O-]
74.9 ± 3.5,69.9 ± 3.3,67.1 ± 3.1,C=CCCCCCC [oct-1-ene] + CCCCn1cc[n+](C)c1.COCCOCCOS(=O)(=O)[O-]
22.7 ± 1.1,20.9 ± 1,20.5 ± 0.9,C1CCCC1 [cyclopentane] + CCCCn1cc[n+](C)c1.COCCOCCOS(=O)(=O)[O-]
0.345 ± 0.035,0.342 ± 0.035,0.337 ± 0.035,CO [methanol] + CCCCn1cc[n+](C)c1.COCCOCCOS(=O)(=O)[O-]
111 ± 5.2,100 ± 4.7,94.5 ± 4.4,CCCCCCC [heptane] + CCCCn1cc[n+](C)c1.COCCOCCOS(=O)(=O)[O-]
156 ± 7.3,140 ± 6.6,130 ± 6.1,CCCCCCCC [octane] + CCCCn1cc[n+](C)c1.COCCOCCOS(=O)(=O)[O-]
80.9 ± 3.8,74.1 ± 3.5,71.1 ± 3.3,CCCCCC [hexane] + CCCCn1cc[n+](C)c1.COCCOCCOS(=O)(=O)[O-]
4.83 ± 0.22,4.74 ± 0.22,4.91 ± 0.22,C#CCCCC [1-hexyne] + CCCCn1cc[n+](C)c1.COCCOCCOS(=O)(=O)[O-]
35.1 ± 1.6,32.9 ± 1.5,31.4 ± 1.5,C=CCCCC [hex-1-ene] + CCCCn1cc[n+](C)c1.COCCOCCOS(=O)(=O)[O-]
41.8 ± 1.9,38.2 ± 1.8,36.4 ± 1.7,C1CCCCCC1 [cycloheptane] + CCCCn1cc[n+](C)c1.COCCOCCOS(=O)(=O)[O-]
34.4 ± 1.6,31.5 ± 1.5,30.3 ± 1.4,C1CCCCC1 [cyclohexane] + CCCCn1cc[n+](C)c1.COCCOCCOS(=O)(=O)[O-]
11.7 ± 0.5,11.4 ± 0.5,11.6 ± 0.5,C#CCCCCCC [1-octyne] + CCCCn1cc[n+](C)c1.COCCOCCOS(=O)(=O)[O-]

Compound,activity coefficient (298.15 K),activity coefficient (303.15 K),activity coefficient (308.15 K)
Cc1ccccc1 [toluene] + CCCCn1cc[n+](C)c1.COCCOCCOS(=O)(=O)[O-],3.72 ± 0.17,3.69 ± 0.17,3.66 ± 0.17
ClC(Cl)(Cl)Cl [tetrachloromethane] + CCCCn1cc[n+](C)c1.COCCOCCOS(=O)(=O)[O-],2.81 ± 0.13,2.85 ± 0.13,2.91 ± 0.13
